O=C(O)Cc1c[nH]c2ccccc12
solubility (mole fraction)
Conditions	278.15 K	283.15 K	288.15 K	293.15 K	298.15 K	303.15 K	308.15 K	313.15 K	318.15 K	323.15 K
in 1,4-dioxane	–	–	2.06e-05	2.2e-05	2.35e-05	2.51e-05	2.69e-05	2.89e-05	3.12e-05	3.38e-05
in DMF	2.98e-05	3.12e-05	3.29e-05	3.47e-05	3.67e-05	3.9e-05	4.16e-05	4.45e-05	4.74e-05	5.07e-05
in DMSO	–	–	–	3.73e-05	3.95e-05	4.2e-05	4.45e-05	4.77e-05	5.12e-05	5.48e-05
in acetone	2.49e-05	2.6e-05	2.73e-05	2.89e-05	3.07e-05	3.26e-05	3.49e-05	3.73e-05	3.98e-05	4.25e-05
in acetonitrile	6.51e-06	6.98e-06	7.47e-06	8.03e-06	8.68e-06	9.36e-06	1.01e-05	1.1e-05	1.2e-05	1.3e-05
in chloroform	2.88e-06	2.99e-06	3.11e-06	3.29e-06	3.48e-06	3.62e-06	3.88e-06	4.07e-06	4.34e-06	4.61e-06
in ethanol	1.17e-05	1.25e-05	1.35e-05	1.47e-05	1.6e-05	1.73e-05	1.86e-05	2.03e-05	2.22e-05	2.41e-05
in ethyl acetate	3.44e-05	3.64e-05	3.85e-05	4.09e-05	4.32e-05	4.58e-05	4.85e-05	5.13e-05	5.43e-05	5.76e-05
in isopropanol	2.15e-05	2.27e-05	2.41e-05	2.56e-05	2.71e-05	2.88e-05	3.1e-05	3.34e-05	3.58e-05	3.88e-05
in methanol	8.95e-06	9.76e-06	1.05e-05	1.17e-05	1.27e-05	1.38e-05	1.53e-05	1.67e-05	1.83e-05	1.99e-05
in n-butanol	2.78e-05	2.9e-05	3.04e-05	3.2e-05	3.39e-05	3.6e-05	3.83e-05	4.09e-05	4.34e-05	4.65e-05
in n-propanol	1.45e-05	1.54e-05	1.65e-05	1.8e-05	1.93e-05	2.08e-05	2.24e-05	2.42e-05	2.62e-05	2.85e-05

— BigSolDB 2.1
